Assay results as given in PubChem BioAssay AID248 (DTP/NCI, 2004).
“And” between values parts separate entries of the source, which are not always exact repeats. Equal entries are not always repeated. Toxic doses and inconclusive results are not listed. No stated cut-off is given here; in the data, active means T/C of 150% or more; inactive means T/C below 125%.

Tested on: L1210 leukemia ip in BDF1 mice, survival T/C
Assay: NCI In Vivo Anticancer Drug Screen. Data for tumor model L1210 Leukemia (intraperitoneal) in B6D2F1 (BDF1) mice
Conditions: endpoint: mean survival time, higher = longer survival
How it was run: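 Transplantable tumor model; survival measured in treated vs vehicle control mice. Value = treated/control.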

[1] = dose: 100.0 mg/kg/injection, schedule: Q01DX009 (ip), vehicle: Klucel (hydroxypropylcellulose) (HPC)
[2] = dose: 100.0 mg/kg/injection, schedule: Q04DX003 (ip), vehicle: Klucel (hydroxypropylcellulose) (HPC)
[3] = dose: 200.0 mg/kg/injection, schedule: Q01DX009 (ip), vehicle: Klucel (hydroxypropylcellulose) (HPC)
[4] = dose: 200.0 mg/kg/injection, schedule: Q04DX003 (ip), vehicle: Klucel (hydroxypropylcellulose) (HPC)
[5] = dose: 400.0 mg/kg/injection, schedule: Q01DX009 (ip), vehicle: Klucel (hydroxypropylcellulose) (HPC)
[6] = dose: 400.0 mg/kg/injection, schedule: Q04DX003 (ip), vehicle: Klucel (hydroxypropylcellulose) (HPC)
[7] = dose: 100.0 mg/kg/injection, schedule: Q04DX002 (ip), vehicle: Klucel (hydroxypropylcellulose) (HPC)
[8] = dose: 200.0 mg/kg/injection, schedule: Q04DX002 (ip), vehicle: Klucel (hydroxypropylcellulose) (HPC)
[9] = dose: 100.0 mg/kg/injection, schedule: Q01DX001 (ip), vehicle: saline
[10] = dose: 200.0 mg/kg/injection, schedule: Q01DX001 (ip), vehicle: saline
[11] = dose: 400.0 mg/kg/injection, schedule: Q01DX001 (ip), vehicle: saline
[12] = dose: 100.0 mg/kg/injection, schedule: Q01DX001 (ip), vehicle: carboxymethylcellulose (CMC)
[13] = dose: 200.0 mg/kg/injection, schedule: Q01DX001 (ip), vehicle: carboxymethylcellulose (CMC)
[14] = dose: 400.0 mg/kg/injection, schedule: Q01DX001 (ip), vehicle: carboxymethylcellulose (CMC)
[15] = dose: 100.0 mg/kg/injection, schedule: Q04DX003 (ip), vehicle: saline with Tween-80
[16] = dose: 200.0 mg/kg/injection, schedule: Q04DX003 (ip), vehicle: saline with Tween-80
[17] = dose: 400.0 mg/kg/injection, schedule: Q04DX003 (ip), vehicle: saline with Tween-80
[18] = dose: 100.0 mg/kg/injection, schedule: Q01DX001 (ip), vehicle: saline with Tween-80

Measured: T/C

Cc1cc(Cl)ccc1NC(=O)c1cccc(C(=O)Nc2ccc(Cl)cc2C)c1
inactive: [1] 97 % of control | [2] 98 % of control | [3] 92 % of control | [4] 90 % of control | [5] 87 % of control | [6] 93 % of control

CC1=C/C(=N\NC(N)=O)CCC1
inactive: [7] 97 % of control | [8] 86 % of control | dose: 400.0 mg/kg/injection, schedule: Q04DX002 (ip), vehicle: Klucel (hydroxypropylcellulose) (HPC) 105 % of control

O=C1OCC2Cc3cc4c(cc3C(c3ccc5c(c3)OCO5)=C12)OCO4 (stereo not drawn)
inactive: [9] 98 % of control | [10] 109 % of control | [11] 95 % of control

CC(=O)NC(CSC(=N)N)C(=O)O (stereo not drawn)
inactive: dose: 50.0 mg/kg/injection, schedule: Q01DX001 (ip), vehicle: carboxymethylcellulose (CMC) 107 % of control | [12] 98 % of control | [13] 98 % of control | [14] 102 % of control

CCCCCCCCCNC(C)=O
inactive: [1] 97 % of control | [3] 92 % of control

O=C(NC(CO)C(O)c1ccc(N=Nc2cccc3ccccc23)cc1)C(Cl)Cl (stereo not drawn)
inactive: [15] 101 % of control | [16] 95 % of control | [17] 93 % of control

COC(=O)C(CCC(=O)CN1C(=O)c2ccccc2C1=O)N1C(=O)c2ccccc2C1=O (stereo not drawn)
inactive: [15] 101 % of control | [16] 99 % of control | [17] 87 % of control

C=C(CCC(C(=O)O)C1CCC2(C)C3=C(CCC12C)C1(C)CCC(O)C(C)(C)C1CC3)C(C)C (stereo not drawn)
inactive: dose: 100.0 mg/kg/injection, schedule: Q01DX009 (ip), vehicle: saline with Tween-80 91 % of control | dose: 200.0 mg/kg/injection, schedule: Q01DX009 (ip), vehicle: saline with Tween-80 87 % of control | dose: 400.0 mg/kg/injection, schedule: Q01DX009 (ip), vehicle: saline with Tween-80 94 % of control

O=C(O)CC(CS(=O)O)C(=O)O (stereo not drawn)
inactive: [18] 91 % of control

O=C(Nc1ccc(N=Nc2ccccc2)cc1)Nc1cc([N+](=O)[O-])ccc1F
inactive: [2] 86 % of control | [4] 86 % of control | [6] 91 % of control

O=S1(=O)CC23CC=CCC2(CC=CC3)C1 (stereo not drawn)
inactive: dose: 50.0 mg/kg/injection, schedule: Q01DX009 (ip), vehicle: Klucel (hydroxypropylcellulose) (HPC) 100 % of control | [1] 97 % of control | [3] 96 % of control

CC1(c2ccccc2)OCCCO1
inactive: [18] 100 % of control | dose: 200.0 mg/kg/injection, schedule: Q01DX001 (ip), vehicle: saline with Tween-80 98 % of control | dose: 400.0 mg/kg/injection, schedule: Q01DX001 (ip), vehicle: saline with Tween-80 107 % of control

CCCCCCCCCCCCCCCCS(=O)(=O)N/N=C/c1ccc(NC(C)=O)cc1
inactive: [12] 98 % of control | [13] 95 % of control | [14] 103 % of control

ClCCCN1c2ccccc2CCc2ccccc21
inactive: dose: 100.0 mg/kg/injection, schedule: Q04DX003 (ip), vehicle: acetone 100 % of control | dose: 200.0 mg/kg/injection, schedule: Q04DX003 (ip), vehicle: acetone 100 % of control | dose: 400.0 mg/kg/injection, schedule: Q04DX003 (ip), vehicle: acetone 103 % of control

CCCCOc1c(OCCCC)c(=O)c1=O
inactive: dose: 178.0 mg/kg/injection, schedule: Q01DX001 (ip), vehicle: saline 106 % of control | dose: 267.0 mg/kg/injection, schedule: Q01DX001 (ip), vehicle: saline 106 % of control

C/C=C/C(=O)Nc1cccc(C(F)(F)F)c1
inactive: dose: 25.0 mg/kg/injection, schedule: Q01DX009 (ip), vehicle: other 92 % of control | dose: 50.0 mg/kg/injection, schedule: Q01DX009 (ip), vehicle: other 102 % of control | dose: 100.0 mg/kg/injection, schedule: Q01DX009 (ip), vehicle: other 92 % of control and 95 % of control

CCCN(/C=C/C=C/C=[N+](CCC)CCC)CCC
inactive: dose: 0.03 mg/kg/injection, schedule: Q04DX003 (ip), vehicle: saline 100 % of control | dose: 0.05 mg/kg/injection, schedule: Q04DX003 (ip), vehicle: saline 109 % of control | dose: 0.1 mg/kg/injection, schedule: Q04DX003 (ip), vehicle: saline 98 % of control

c1ccc(CN=C(c2ccccc2)c2ccccc2)cc1
inactive: [1] 101 % of control | [2] 104 % of control | [3] 95 % of control | [4] 96 % of control | [5] 106 % of control | [6] 98 % of control

c1ccc2cc(NCNc3ccc4ccccc4c3)ccc2c1
inactive: [9] 100 % of control | [10] 95 % of control | [11] 100 % of control

CCc1ccc(NC(=O)Nc2ccccc2OC)cc1
inactive: dose: 100.0 mg/kg/injection, schedule: Q01DX009 (ip), vehicle: gum acacia 97 % of control | dose: 100.0 mg/kg/injection, schedule: Q04DX003 (ip), vehicle: gum acacia 98 % of control | dose: 200.0 mg/kg/injection, schedule: Q01DX009 (ip), vehicle: gum acacia 94 % of control | dose: 200.0 mg/kg/injection, schedule: Q04DX003 (ip), vehicle: gum acacia 92 % of control | dose: 400.0 mg/kg/injection, schedule: Q01DX009 (ip), vehicle: gum acacia 91 % of control | dose: 400.0 mg/kg/injection, schedule: Q04DX003 (ip), vehicle: gum acacia 104 % of control

O=C(NCc1ccncc1)C(c1ccccc1)c1ccccc1
inactive: [7] 96 % of control | [8] 92 % of control
